Measured values published in article PMC11313193, “Which Constituents Determine the Antioxidant Activity and Cytotoxicity of Garlic? Role of Organosulfur Compounds and Phenolics” (International Journal of Molecular Sciences, 2024).
Where two headings read alike, the source gives them in different places.

Legend:
[1] = ABTS^● decolorization assay; conditions: 30 min incubation at room temperature, absorbance at 734 nm
Experimental: A modification of the ABTS^● decolorization assay was employed. Briefly, various volumes of solutions of the studied compounds were introduced to wells of a 96-well microplate, each prefilled 200 μL of ABTS^● solution. […] The drop in absorbance after 30 min incubation at room temperature was read as a measure of the antioxidant activity.
(§1) All assays were standardized with respect to Trolox. The antioxidant activity was calculated in each case as a ratio of the slope of the dependence of absorbance change on the concentration of a studied compound to the slope of the dependence of absorbance change of standard samples concerning Trolox on the concentration of Trolox. Antioxidant activities were expressed in moles of Trolox equivalents (TE)/mol of a studied compound, as described previously.

[2] = DPPH^● decolorization assay; conditions: 30 min at ambient temperature in the dark, absorbance at 517 nm
Experimental: The assay was performed as described in a previous article. Briefly, increasing volumes of solutions of the studied compounds were introduced to wells of a 96-well microplate, each with 200 μL of 0.3 mM DPPH^● solution in methanol. The reaction was allowed to proceed for 30 min at ambient temperature in the dark, and absorbance at 517 nm was read. The absorbance decrease was a measure of the antioxidant activity.
as §1

[3] = Ferric reducing antioxidant power (FRAP) assay; conditions: 30 min at ambient temperature, pH 3.6, absorbance at 593 nm
Experimental: The method proposed by Benzie and Strain [91] was employed with a slight modification. Briefly, increasing volumes of solutions of the studied compounds were added to wells of a 96-well microplate prefilled with 200 μL of the working solution composed of 0.3 M acetate buffer, pH 3.6 (10 volumes), 10 mM 2,4,6-tris(2-pyridyl)-s-triazine (TPTZ), in 40 mM HCl (1 volume) and 20 mM FeCl3 (1 volume), was prepared immediately before use. After 30 min incubation at ambient temperature and the absorbance of the Fe^2+-TPTZ complex was read at 593 nm.
as §1

[4] = tested on: SKOV-3 ovarian cancer cells; test: Cytotoxicity (Neutral Red), SKOV-3 cells; format: cell-based, human; conditions: 24 h exposure; for IC50: Homo sapiens, SK-OV-3, Neutral Red, read-out: IC50 SKOV-3; for Concentration at which viability of SKOV-3 cells was lowered: p < 0.05
Experimental: (§2) The PEO1 cells, SKOV-3 cells, and MRC-5 cells were grown at 37 °C and 5% CO2 in RPMI + GlutaMAX medium, McCoy’s 5A medium, and the DMEM + GlutaMAX medium, respectively. The media were supplemented with 10% heat-inactivated fetal calf serum and penicillin/streptomycin. The cell viability was evaluated using the Trypan Blue exclusion test.
(§3) In the cytotoxicity experiments, cells were grown in wells of sterile 96-well plates. The seeding density was 1 × 10^4 for SKOV-3 and MRC-5 cells and 1.5 × 10^4 for PEO1 cells. The cells were allowed to grow in the incubator for 24 h. Then, the medium was removed and new medium with an examined compound was added. The stock solutions of the compounds studied diluted with the appropriate cell medium were filtered before the addition to the cells using 0.22 µm filters. No more than 0.02% of DMSO was present in the media, and it had no discernible impact on the treated cells. Cells not exposed to any compound served as a control. After another 24 h incubation, the medium was gently aspirated, and the wells were added with 2% sterile Neutral Red solution (100 µL). The plates were then incubated (37 °C, 5% CO2) for one hour. The Neutral Red solution was aspirated, and the wells were washed two times with warm (37 °C) PBS. Subsequently, 100 µL of a permeabilization mixture (water/ethanol/glacial acetic acid, 50/49/1, v/v/v) was introduced to each well. The plates were shaken at 700 rpm for 20 min and absorbance was read at a wavelength of 540 nm against 620 nm.

MRC-5 fibroblasts = test: Cytotoxicity (Neutral Red), MRC-5 fibroblasts; format: cell-based, human; conditions: for IC50: read-out: IC50 MRC-5; for Concentration at which viability of MRC-5 cells was lowered: p < 0.05
Experimental: as §2, §3

[5] = tested on: PEO1 ovarian cancer cells; test: Cytotoxicity (Neutral Red), PEO1 cells; format: cell-based, human; conditions: for IC50: Homo sapiens, read-out: IC50 PEO1
Experimental: as §2, §3

neuroblastoma N2a cells = tested on: neuroblastoma N2a cells; set-up: method as in PMID 24760364; conditions: after 24 h; read-out: Concentration decreasing proliferation of N2a cells by 50%; cited from earlier work
A375 melanocytes = tested on: A375 melanocytes; set-up: method as in PMID 33178586; conditions: read-out: Concentration decreasing proliferation of A375 melanocytes by 50%; cited from earlier work
B16 melanocytes = tested on: B16 melanocytes; set-up: method as in PMID 33178586; conditions: read-out: Concentration decreasing proliferation of B16 melanocytes by 50%; cited from earlier work
[6] = tested on: colon carcinoma HT-29 cells; set-up: method as in PMID 24282361; conditions: after 48 h exposure; read-out: Concentration decreasing proliferation of HT-29 cells by 50%; cited from earlier work
[7] = tested on: colorectal carcinoma HCT-15 cells; set-up: method as in PMID 24282361; conditions: after 48 h exposure; read-out: Concentration decreasing proliferation of HCT-15 cells by 50%; cited from earlier work
[8] = tested on: microsomal lipid peroxidation; set-up: method as in PMID 16822206; conditions: cited from earlier work
[9] = tested on: cervical epidermoid carcinoma Ca Ski cells; set-up: method as in PMID 19035312; conditions: 24 h exposure; read-out: Concentration decreasing viability of Ca Ski cells to about 50%; cited from earlier work
[10] = tested on: breast cancer MCF-7 cells; set-up: method as in PMID 18817629; conditions: 24 h exposure; read-out: Concentration decreasing viability of MCF-7 cells to about 50%; cited from earlier work
[11] = tested on: prostatic carcinoma LNCaP cells; set-up: method as in PMID 16142693; conditions: 100 μM, 24 h exposure; cited from earlier work
lung cancer A549 cells = tested on: lung cancer A549 cells; set-up: method as in PMID 16024053; conditions: 200 μM, 24 h exposure; cited from earlier work
[12] = tested on: colorectal cancer HCT-116 cells; set-up: method as in PMID 19202565; conditions: 400 μM, 24 h exposure; cited from earlier work
MDA-MB-468 cells = tested on: MDA-MB-468 cells; set-up: method as in earlier work; conditions: 1.5 mM, 24 h exposure; cited from earlier work
[13] = tested on: lung epithelial BEAS-2B cells; set-up: method as in earlier work; conditions: 1.5 mM, 24 h exposure; cited from earlier work
SKOV-3 cells = tested on: SKOV-3 cells; set-up: method as in PMID 16675472; conditions: cited from earlier work
[14] = tested on: A2780 human ovarian carcinoma cells; set-up: method as in PMID 24362328; conditions: prolonged treatment; cited from earlier work
[15] = tested on: breast cancer MCF-7 cells; set-up: method as in PMID 32286702; conditions: 1 mM, 24 h exposure; cited from earlier work
[16] = tested on: breast cancer HCC-70 cells; set-up: method as in PMID 32286702; conditions: 1 mM, 24 h exposure; cited from earlier work
[17] = Homo sapiens, MRC5, 24 h exposure, Neutral Red
[18] = PEO1, 24 h exposure, Neutral Red

C=CCSCC(N)C(=O)O (stereo in doubt) [S-Allyl-D-cysteine]
Antioxidant activity, ABTS^● Decolorization [1]: 0.070 ± 0.059 mol Trolox equivalents (TE)/mol compound
Antioxidant activity, DPPH^● Decolorization [2]: −0.020 ± 0.004 mol Trolox equivalents (TE)/mol compound
Antioxidant activity, FRAP [3]: 0.0003 ± 0.0002 mol Trolox equivalents (TE)/mol compound
IC50 [4]: 421 µM
IC50 (MRC-5 fibroblasts; [17]): 578 µM

C=CCSCC=C [Allyl sulfide]
Antioxidant activity, ABTS^● Decolorization [1]: 0.016 ± 0.010 mol Trolox equivalents (TE)/mol compound
Antioxidant activity, DPPH^● Decolorization [2]: −0.006 ± 0.011 mol Trolox equivalents (TE)/mol compound
Antioxidant activity, FRAP [3]: 0.0026 ± 0.0010 mol Trolox equivalents (TE)/mol compound
Concentration range with no significant decrease in viability of SKOV-3 cells [4]: up to 100 µM
Concentration at which viability of SKOV-3 cells was lowered [4]: 200 to 500 µM
IC50 [4]: 243 µM
Concentration range with no significant decrease in viability of PEO1 cells ([5]; 24 h exposure): up to 100 µM
IC50 [5, 18]: 257 µM
Concentration range with no significant decrease in viability of MRC-5 cells (MRC-5 fibroblasts; 24 h exposure): up to 100 µM
Concentration at which viability of MRC-5 cells was lowered (MRC-5 fibroblasts; 24 h exposure): 200 to 500 µM
IC50 (MRC-5 fibroblasts; [17]): 163 µM

O=C(O)/C=C/c1ccc(O)cc1 [Coumaric acid]
Antioxidant activity, ABTS^● Decolorization [1]: 0.585 ± 0.082 mol Trolox equivalents (TE)/mol compound
Antioxidant activity, DPPH^● Decolorization [2]: 0.076 ± 0.005 mol Trolox equivalents (TE)/mol compound
Antioxidant activity, FRAP [3]: 0.153 ± 0.003 mol Trolox equivalents (TE)/mol compound
Concentration range with no significant decrease in viability of SKOV-3 cells [4]: 0 to 1000 µM
Concentration range with no significant decrease in viability of PEO1 cells ([5]; 24 h exposure): 0 to 1000 µM
IC50 [5, 18]: 1430 µM
Concentration range with no significant decrease in viability of MRC-5 cells (MRC-5 fibroblasts; 24 h exposure): 0 to 1000 µM
IC50 (neuroblastoma N2a cells): 104 µM
IC50 (A375 melanocytes): 2500 µM
IC50 (B16 melanocytes): 2800 µM
IC50 [6]: 1400 µM
IC50 [7]: 1600 µM

C=CCSSCC=C [Diallyl disulfide, diallyl disulfide]
Antioxidant activity, ABTS^● Decolorization [1]: 0.013 ± 0.006 mol Trolox equivalents (TE)/mol compound
Antioxidant activity, DPPH^● Decolorization [2]: 0.049 ± 0.014 mol Trolox equivalents (TE)/mol compound
Antioxidant activity, FRAP [3]: 0.0025 ± 0.0011 mol Trolox equivalents (TE)/mol compound
IC50 ([5]; PEO1, 24 h): 265 µM
Concentration at which viability of MRC-5 cells was lowered (MRC-5 fibroblasts; 24 h exposure): 300 µM
IC50 (MRC-5 fibroblasts; Homo sapiens, MRC5, 24 h): 268 µM
Termination of lipid peroxidation / prevention of induced microsomal lipid peroxidation [8]: efficient lipid peroxidation terminator
IC50 [9]: ~25 µM
IC50 [10]: 400 µM
Reduction of survival of LNCaP cells [11]: about 30%
Reduction of survival of A549 cells (lung cancer A549 cells): about 20%
Survival of HCT-116 cells (decreased to) [12]: ca. 80%
Viability of MDA-MB-468 cells (reduced to) (MDA-MB-468 cells): about 65%
Viability of BEAS-2B cells (reduced to) [13]: about 75%

C=CCSSSCC=C [Diallyl trisulfide, diallyl trisulfide]
Antioxidant activity, ABTS^● Decolorization [1]: 0.030 ± 0.006 mol Trolox equivalents (TE)/mol compound
Antioxidant activity, DPPH^● Decolorization [2]: 0.005 ± 0.0003 mol Trolox equivalents (TE)/mol compound
Antioxidant activity, FRAP [3]: 0.0022 ± 0.0004 mol Trolox equivalents (TE)/mol compound
Concentration at which viability of SKOV-3 cells was lowered [4]: 50 µM
IC50 [4]: 154 µM
Concentration at which viability of PEO1 cells was lowered ([5]; 24 h exposure, p < 0.05): 50 µM
IC50 [5, 18]: 721 µM
Concentration range with no significant decrease in viability of MRC-5 cells (MRC-5 fibroblasts; 24 h exposure): 0 to 50 µM

C=CCSC[C@H](N)C(=O)O [SAC, S-allylcysteine]
Termination of lipid peroxidation / prevention of induced microsomal lipid peroxidation [8]: ineffective
Migration of SKOV-3 cells and their invasiveness (SKOV-3 cells): inhibited
Apoptosis of A2780 cells [14]: provoked apoptosis
Migration and invasiveness of A2780 cells [14]: attenuated
Proliferation of A2780 cells [14]: inhibited proliferation

alliin
Antioxidant activity, ABTS^● Decolorization [1]: 0.035 ± 0.012 mol Trolox equivalents (TE)/mol compound
Antioxidant activity, DPPH^● Decolorization [2]: 0.004 ± 0.001 mol Trolox equivalents (TE)/mol compound
Antioxidant activity, FRAP [3]: 0.0006 ± 0.0007 mol Trolox equivalents (TE)/mol compound
IC50 (MRC-5 fibroblasts; 24 h exposure, Neutral Red): 321 µM
Termination of lipid peroxidation / prevention of induced microsomal lipid peroxidation [8]: ineffective
Viability of MCF-7 cells (decreased down to) [15]: ca. 75%
Viability of HCC-70 cells (decreased down to) [16]: ca. 85%
